These results are taken from US6878712B1, “Amides as inhibitors for pyruvate dehydrogenase” (AstraZeneca AB, priority 1999, dated 2005).

Series [1] deals with PDH. Conditions: cited from earlier work.
The conditions of series [2]: cited from earlier work.

Structures can show the parent of a compound that is named as a salt.

As for `C[C@@](O)(C(=O)N1CCC(C(=O)c2ccc(F)cc2)CC1)C(F)(F)F`, the melting point was in the range of 78 to 79 °C.

With `C[C@@H]1CN(C(=O)[C@@](C)(O)C(F)(F)F)[C@@H](C)CN1S(=O)(=O)c1ccc(C#N)cc1`, the melting point lay in the range of 186 to 187 °C.

For `CCS(=O)(=O)N1C[C@H](C)N(C(=O)[C@@](C)(O)C(F)(F)F)C[C@H]1C`, the melting point was in the range of 142 to 144 °C.

Consider `C[C@@H]1CN(C(=O)[C@@](C)(O)C(F)(F)F)[C@@H](C)CN1S(=O)(=O)c1cccs1`, for which the melting point is 116 to 117 °C.

Take `C[C@@H]1CN(C(=O)[C@@](C)(O)C(F)(F)F)[C@@H](C)CN1S(=O)(=O)c1ccc(C(=O)O)cc1`: the melting point was 194 to 196 °C.

For the compound `C[C@@H]1CN(C(=O)[C@@](C)(O)C(F)(F)F)[C@@H](C)CN1S(=O)(=O)c1ccc(C(=O)N(C)C)cc1`, the melting point is 86 to 87 °C.

Regarding `C[C@@H]1CN(C(=O)[C@@](C)(O)C(F)(F)F)[C@@H](C)CN1S(=O)(=O)c1ccc(F)cc1`, the melting point lay within 174 to 175 °C.

On to `C[C@@H]1CN(C(=O)[C@@](C)(O)C(F)(F)F)[C@@H](C)CN1C(=O)c1ccc(F)cc1`, for which the melting point fell in the range of 177 to 178 °C.

The compound `C[C@@](O)(C(=O)N1CCC(N)CC1)C(F)(F)F` (as salt: hydrochloride) came in with a melting point of 245 to 246 °C.

On to `O=C(O)C(Cl)Cl` [DCA, dichloroacetic acid], for which, in series [1] (after acute administration in animals), the “activity of PDH” value is on record as “increases the activity of PDH”. Moreover, the “proportion of PDH in its active form” value in series [1] (single administration, 150 mg/kg, intraperitoneally) is listed as “increased the proportion of PDH in its active form”. For the same compound, the plasma glucose result in series [2] (after repeated administration) is “significant decrease in plasma glucose”. In addition, the glycaemia entry in series [2] (in vivo) is recorded as “reducing glycaemia”.

As usually defined, the melting point is the temperature of the solid-liquid transition.
